Reference: US9937161B2, “Combinatorial compositions and methods for treatment of melanoma” (THE GENERAL HOSPITAL CORPORATION, priority 2013, dated 2018)

Columns and labels:
UACC257 xenografts = experiment: Xenograft tumor study; format: in vivo, mice; conditions: 2,4-DNP 20 mg/kg/day or vemurafenib 75 mg/kg/day by oral gavage
[1] = tested on: BRAF(V600E)+vector and BRAF(V600E)+MITF melanoma cells; experiment: Cell number after 2,4-DNP in isogenic cells; format: cell-based, human; conditions: 72 h
Procedure: FIG. 7A are histograms showing the number of BRAF(V600E)+vector and BRAF(V600E)+MITF melanoma cells following treatment with 2,4-DNP with indicated dose for 72 h.
(§1) Indicated cell lines were plated in complete media overnight. […] Results were normalized to cell number. All assays were performed in logarithmically growing cells.

A375P xenografts = experiment: Xenograft tumor study; format: in vivo, mice; conditions: 2,4-DNP 20 mg/kg/day by oral gavage
Procedure: FIG. 7G are line graphs showing the effect of 2,4-DNP (20 mg/kg/day) or vemurafenib (75 mg/kg/day) on murine melanoma xenografts of A375P cell line (n=7-8 per group). **, p<0.01 compared to vehicle group; ***, p<0.001 compared to vehicle group.
All mouse experiments (tumor nucleation studies and longitudinal drug treatment) were done in accordance with Institutional Animal Care and Use Committee (IACUC) approved animal protocols at Dana-Farber Cancer Institute. Engineered melanoma cells with BRAF(V600E)+vector or +MITF were inoculated subcutaneously at three flank positions (100,000 cells in 100 μL PBS per site) in NCR-FoxNu (male, 6 weeks) animals. Tumor establishment was monitored and experiment was terminated after 10 weeks. For longitudinal tumor treatment studies, melanoma cell lines (A375P and UACC257, both carrying pFUW-mCherry-puro-LUC) were injected subcutaneously into NCR-FoxNu mice (5,000,000 cells in 100 μL PBS with growth factor reduced matrigel). Initial tumor establishment and growth visualized by in vivo imaging by comparing signal obtained seven (7) days apart. […] Treatment with vemurafenib (75 mg/kg/day) or 2,4-DNP (20 mg/kg/day) was administered by oral gavage in 0.5% methyl cellulose and tumor size measured by calipers twice weekly. Mean response measured based on cohorts of 6-7 mice for each arm (and each cell line).

[2] = tested on: melanoma cells or primary human melanocytes; experiment: Cell number after 2,4-DNP, melanoma cells versus melanocytes; format: cell-based; conditions: 50 μg/mL, 72 h
Procedure: FIG. 13 are histograms showing the number of melanoma cells or primary human melanocytes following treatment with 2,4-DNP (50 μg/mL) for 72 h. **, p<0.01 compared to primary melanocytes treated with 2,4-DNP.
as §1

melanoma cells (M14) = experiment: Cell number, mitochondrial inhibitors combined with PLX4720; conditions: in vitro; cell number after 72 hrs
Procedure: (§2) Melanoma cell were treated for 24 h with PLX4720 then mitochondrial uncoupler for 48 h, prior to estimation of cell number.
as §2
Cell number was calculated using the CYQUANT® assay (INVITROGEN™) or crystal violet staining. Lactate measurements were done using the Lactate Assay (BioVision or SIGMA®) per manufacturer's protocols. Indicated cell lines were plated in complete media overnight. Media was changed to serum free-media to avoid interference with the assay for 16 h with either PLX4720 (3 μM) or PLX4032 (1 μM) or vehicle control prior to harvesting cells and measurement of lactate. Results were normalized to cell number. All assays were performed in logarithmically growing cells.

UACC257 cells [3] = experiment: ATP assay after 2,4-DNP; format: cell-based; conditions: 50 μg/mL, 24 h
Procedure: (§3) FIG. 7D are histograms showing the effects of 2,4-DNP (50 μg/mL, 24 h) on ATP in the indicated cell lines in vitro.
(§4) Glucose uptake (relative to total cell numbers) was measured over 24 h as trace [^3H]-deoxyglucose uptake in cells growing in glucose-containing media followed by plate harvest and subsequent analysis on a PerkinElmer® Wallac 1450 Microbeta scintillation counter. Oxygen consumption was measured using XF Flux Analyzer (Seahorse Biosciences) using standard protocols. ATP measurements were conducted using ENLITEN® ATP assay (PROMEGA®) according to standard trichloroacetic acid (TCA) extraction protocols.

A375P cells [4] = experiment: ATP assay after 2,4-DNP; format: cell-based; conditions: 50 μg/mL, 24 h
Procedure: as §3, §4

UACC257 cells [5] = experiment: Lactate assay after 2,4-DNP; format: cell-based; conditions: 50 μg/mL, 24 h
Procedure: (§5) FIG. 7E are histograms showing the effects of 2,4-DNP (50 μg/mL, 24 h) on the lactate levels in the indicated cell lines in vitro.
as §1

A375P cells [6] = experiment: Lactate assay after 2,4-DNP; format: cell-based; conditions: 50 μg/mL, 24 h
Procedure: as §5, §1

## O=[N+]([O-])c1ccc(O)c([N+](=O)[O-])c1 [2,4-DNP, 2,4-dinitrophenol]
UACC257 xenografts
  tumor growth: profoundly inhibited tumor growth
[1]
  sensitivity of BRAF(V600E)+MITF cells versus BRAF(V600E)+vector cells (cell number): significantly more sensitive
A375P xenografts
  tumor growth: insensitive
[2]
  sensitivity of melanoma cells compared to primary melanocytes (cell number): more sensitive to DNP than primary melanocytes, except A375P
Melanoma cells (M14)
  Combination Index with PLX4720 (additively enhanced the efficacy of PLX4720): 0.9
UACC257 cells [3]
  ATP: decrease
A375P cells [4]
  decrease in ATP: not
UACC257 cells [5]
  lactate: increases
A375P cells [6]
  increases in lactate: not
